The source of these data is ChEMBL document CHEMBL4673280, “Discovery and SAR studies of 2-alkyl-3-phenyl-2,4,5,6,7,8-hexahydropyrazolo[3,4-d]azepines as 5-HT inhibitors leading to the identification of a clinical candidate” (Bioorg Med Chem Lett, 2021).

Values joined by “and” are separate entries in the source; they are usually repeats but may differ in a detail not shown here. Identical values can stand only once.

Series [1] can be described thus: Clearance in rat at 3 mg/kg, sc. The series is classed as ADME, organism-based. The conditions noted are these: in vivo.
Series [2] in a line: Half life in dog at 10 mg/kg, po. The series is classed as ADME, organism-based, Canis lupus familiaris. The conditions noted are these: in vivo.
The target of series [3] is T1, 5-hydroxytryptamine receptor 2C (Homo sapiens, UniProt P28335).
T1 sequence (P28335 whole entry): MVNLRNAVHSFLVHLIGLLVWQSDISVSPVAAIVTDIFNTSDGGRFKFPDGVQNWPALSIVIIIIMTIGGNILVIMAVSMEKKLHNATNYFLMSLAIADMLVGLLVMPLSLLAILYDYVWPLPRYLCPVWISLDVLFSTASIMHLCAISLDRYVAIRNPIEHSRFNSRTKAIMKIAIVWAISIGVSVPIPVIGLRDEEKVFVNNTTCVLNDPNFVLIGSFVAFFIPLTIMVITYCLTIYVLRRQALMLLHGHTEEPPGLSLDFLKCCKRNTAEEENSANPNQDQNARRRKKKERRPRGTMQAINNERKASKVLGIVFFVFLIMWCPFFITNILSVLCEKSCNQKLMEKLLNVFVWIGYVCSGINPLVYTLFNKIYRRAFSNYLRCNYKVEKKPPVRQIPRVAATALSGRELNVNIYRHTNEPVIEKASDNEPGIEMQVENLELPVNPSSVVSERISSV
In words: Displacement of [3H]-ketanserin from human 5-HT2C receptor by competitive radioligand binding assay. For orientation: Displacement assays read how much labelled ligand stays bound in the presence of the test substance.

The nature of series [4]: Clearance in rat plasma at 10 mg/kg, po. The series is classed as ADME, organism-based.
Series [5] can be described thus: Clearance in rat at 1 mg/kg, iv. The series is classed as ADME, organism-based. The conditions noted are these: in vivo.
Series [6] is described as follows: Cmax in rat brain at 10 mg/kg, po. The series is classed as ADME, organism-based. Set-up: route oral, dose 10 mg/kg.
The nature of series [7]: Ratio of drug level in rat brain to plasma at 10 mg/kg, po. The conditions noted are these: brain and plasma, read-out: BPR. The series is classed as ADME, organism-based.
Series [8] can be described thus: Cmax in dog at 10 mg/kg, po. The series is classed as ADME, organism-based, Canis lupus familiaris. The conditions noted are these: in vivo. Set-up: route oral, dose 10 mg/kg.
The nature of series [9]: Tmax in rat brain at 10 mg/kg, po. The series is classed as ADME, organism-based.
A short description of series [10]: Metabolic stability in human liver microsomes assessed as half life. The series is classed as ADME, Microsome. For orientation: Liver microsomes are vesicles of endoplasmic reticulum, rich in cytochrome P450 enzymes.
The target of series [11] is 5-hydroxytryptamine receptor 7 (Rattus norvegicus, UniProt P32305). The series is described as follows: Displacement of [3H]-CT from rat 5-HT7 receptor expressed in HEK293 cells by competitive radioligand binding assay. The series is classed as cell-based.
Series [12] in a line: Protein binding in rat plasma assessed as unbound fraction. The series is classed as ADME, cell-free.
Series [13] is described as follows: Half life in non-human primates at 5 mg/kg, po. The series is classed as ADME, organism-based. The conditions noted are these: in vivo.
Series [14] deals with 5-hydroxytryptamine receptor 2A (Homo sapiens, UniProt P28223). In words: Displacement of [3H]-ketanserin from human 5-HT2A receptor by competitive radioligand binding assay.
A short description of series [15]: Toxicity in rat assessed as effect on body temperature at 0.03 to 1 mg/kg, po. The series is classed as organism-based. The conditions noted are these: in vivo, dose 0.03-1 mg/kg.
A short description of series [16]: Cmax in rat at 3 mg/kg, po. The series is classed as ADME, organism-based. More on the design: route oral, dose 3 mg/kg. The conditions noted are these: in vivo.
The nature of series [17]: Ex vivo receptor occupancy at 5-HT2A receptor in orally dosed rat frontal cortex measured after 1 hr. The series is classed as functional. The conditions noted are these: po.
Series [18] in a line: Half life in rat at 1 mg/kg, iv. The series is classed as ADME, organism-based. The conditions noted are these: in vivo.
Series [19] in a line: Cmax in rat at 3 mg/kg, sc. The series is classed as ADME, organism-based. More on the design: route subcutaneous, dose 3 mg/kg. The conditions noted are these: in vivo.
The nature of series [20]: AUC in rat at 1 mg/kg, iv. The series is classed as ADME, organism-based. More on the design: dose 1 mg/kg. The conditions noted are these: in vivo.
Series [21] is described as follows: Oral bioavailability in rat. The conditions noted are these: in vivo. The series is classed as ADME, organism-based.

Sequence of 5-hydroxytryptamine receptor 7 (P32305 whole entry): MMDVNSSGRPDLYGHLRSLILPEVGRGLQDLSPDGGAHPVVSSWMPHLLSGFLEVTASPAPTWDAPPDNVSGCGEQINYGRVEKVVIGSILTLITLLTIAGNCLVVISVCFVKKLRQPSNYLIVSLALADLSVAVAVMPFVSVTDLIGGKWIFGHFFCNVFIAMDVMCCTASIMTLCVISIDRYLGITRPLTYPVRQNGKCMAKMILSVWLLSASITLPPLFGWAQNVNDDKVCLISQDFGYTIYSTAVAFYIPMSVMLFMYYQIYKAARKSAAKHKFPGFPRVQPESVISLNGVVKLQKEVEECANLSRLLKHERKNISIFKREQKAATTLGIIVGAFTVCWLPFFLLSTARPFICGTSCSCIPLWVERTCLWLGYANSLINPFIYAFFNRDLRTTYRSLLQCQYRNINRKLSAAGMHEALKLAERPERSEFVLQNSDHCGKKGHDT
Sequence of 5-hydroxytryptamine receptor 2A (P28223 whole entry): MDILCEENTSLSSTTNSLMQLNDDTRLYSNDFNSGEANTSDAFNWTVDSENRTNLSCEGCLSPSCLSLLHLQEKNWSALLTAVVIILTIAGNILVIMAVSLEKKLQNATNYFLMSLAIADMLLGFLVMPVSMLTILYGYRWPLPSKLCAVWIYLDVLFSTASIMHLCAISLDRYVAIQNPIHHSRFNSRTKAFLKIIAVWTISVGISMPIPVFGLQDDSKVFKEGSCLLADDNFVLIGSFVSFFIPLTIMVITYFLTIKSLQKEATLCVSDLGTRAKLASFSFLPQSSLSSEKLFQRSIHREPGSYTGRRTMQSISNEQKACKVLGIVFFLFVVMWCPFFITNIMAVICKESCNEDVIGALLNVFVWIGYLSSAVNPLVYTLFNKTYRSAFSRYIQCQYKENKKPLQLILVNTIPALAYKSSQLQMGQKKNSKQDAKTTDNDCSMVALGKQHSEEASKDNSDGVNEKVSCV

The term CL/F denotes clearance divided by bioavailability, as obtained after extravascular dosing. Usually half-life stands for the time needed for the level to fall by half in the phase considered. The Ki is the dissociation constant of the complex between target and ligand, obtained from inhibition or displacement. Usually clearance stands for the rate of elimination divided by the concentration. Low values mean inefficient removal, high ones efficient removal. A word on the Cmax: it is the peak of the concentration-time curve. The term Tmax denotes the time at which the peak concentration occurs. Broadly, the fraction unbound is free concentration divided by total concentration. The ED50 is the midpoint of the dose-response relation. The low end stands for greater potency, the high end for weaker potency. Usually AUC stands for concentration integrated over time. One may read the bioavailability as dose-corrected exposure relative to a reference, in per cent. The low end stands for little systemic uptake, the high end for much systemic uptake. For the compound `CC(C)n1nc2c(c1-c1ccc(F)cc1)CCNCC2`, the results for the CL/F in series [1] and in series [4] were 6.67 mL/min and 3.33 mL/min, respectively. Also, the half-life was 636 min in series [2], above 60 min in series [10], 684 min in series [13] and 204 min in series [18]. In addition, the Ki amounted to 49 nM in [3], 8 nM in series [11] and 8 nM in [14]. The compound further had a clearance in series [5] of 6.67 mL/min. The peak concentration (Cmax) in [6] is 1680 ng/mL and 6.1 µM; in series [8], 2000 ng/mL; in series [16], 190 ng/mL and 700 nM; in series [19], 260 ng/mL and 940 nM. Also, the Kp in series [7] was above 1. Besides, in [9], the Tmax came to 1 h. The fraction unbound in series [12] is 0.2. Besides, in series [15], the Activity result is given as “Non-Toxic”. This compound also returned an ED50 in [17] of 0.8 mg/kg. In series [20], the AUC is 2.8 µM·h. In series [21], this compound returned a bioavailability of 100%.
